Test results: the NIST ThermoML archive (doi:10.1016/j.jct.2004.11.015)
± gives the expanded uncertainty stated by the source.

How the values were obtained:
[1] = Liquid; for mass density: 101.33 kPa
[2] = refractive index (Na D-line) (dimensionless); settings: 101.33 kPa, Liquid, Abbe refractometer

Row | mass density ([1]; 298.15 K) | refractive index ([2]; 298.15 K) | Compound | also measured
1 | 939.8 ± 1.5 kg/m3 | 1.4984 ± 0.0007 | Cc1ccccn1 [2-methylpyridine] | vapor or sublimation pressure ([1]; 398.05 K): 94.7 ± 9.6 kPa
2 | 936.3 ± 1.5 kg/m3 | 1.4356 ± 0.0007 | CC(=O)N(C)C [N,N-dimethylethanamide] | vapor or sublimation pressure ([1]; 415.35 K): 94.7 ± 9.6 kPa
3 |  |  | CC(=O)c1ccccc1 [acetophenone] | mass density ([1]; 293.15 K): 1028.1 ± 1.3 kg/m3; vapor or sublimation pressure ([1]; 472.25 K): 94.7 ± 9.6 kPa; refractive index ([2]; 293.15 K): 1.5342 ± 0.0007
4 | 862.5 ± 1.1 kg/m3 | 1.4932 ± 0.0007 | CCc1ccccc1 [ethylbenzene] | vapor or sublimation pressure ([1]; 407.05 K): 94.7 ± 9.6 kPa
5 | 815 ± 1 kg/m3 | 1.4085 ± 0.0007 | CCCCCO [pentan-1-ol] | vapor or sublimation pressure ([1]; 400.15 K): 94.7 ± 9.6 kPa

Row | Compound | mass density ([1]; 298.15 K) | refractive index ([2]; 298.15 K) | also measured
6 | ClCC1CO1 (centres undefined) [1-chloro-2,3-epoxypropane] | 1174.6 ± 2 kg/m3 | 1.4358 ± 0.0007 | vapor or sublimation pressure ([1]; 389.15 K): 94.7 ± 9.6 kPa
7 | CC(=O)CC(C)C [4-methylpentan-2-one] | 796.3 ± 1.2 kg/m3 | 1.3936 ± 0.0007 | vapor or sublimation pressure ([1]; 387.15 K): 94.7 ± 9.6 kPa
8 | C=CC#N [acrylonitrile] | 800.4 ± 1.3 kg/m3 | 1.3888 ± 0.0007 | vapor or sublimation pressure ([1]; 348.85 K): 94.7 ± 9.6 kPa
